Experimental data as given in US20030181418A1, “Pharmaceutical composition” (SANKYO COMPANY, LIMITED, priority 2002, published 2003).
Where two headings read alike, the source gives them in different places.

Test system: Lewis rat with adjuvant (Mycobacterium butyricum) induced arthritis
Type: in vivo
Conditions: distal end of right-and-left thighbone, 21st day after adjuvant, 14th to 20th day
[1] = Example 2, celecoxib 1 mg/kg orally every day and/or Preparation 22 3.5 mg/kg intraperitoneally

| Molecule | Bone density (average ± standard deviation) [1] [mg/cm^2] | Bone density (average ± standard deviation) (Example 1, loxoprofen sodium 5 mg/kg orally and/or Preparation 4 0.1 mg/kg intraperitoneally, every day) [mg/cm^2] |
| --- | --- | --- |
| Cc1ccc(-c2cc(C(F)(F)F)nn2-c2ccc(S(N)(=O)=O)cc2)cc1 [Celecoxib, celecoxib] | 103.0 ± 1.8 | – |
| CC(C(=O)O)c1ccc(CC2CCCC2=O)cc1 (stereo not drawn) [Loxoprofen sodium, loxoprofen sodium] | – | 106.5 ± 0.8 |
| Preparation 22: complex of recombinant human OCIF dimer and DS5; DS5 150 mg/ml, OCIF 5 mg/ml, 7° C., pH 10.5, 168 hours (conjugate, UniProt O00300 22-401, looked up, dimer complexed with DS5, complex of recombinant human OCIF dimer and DS5; DS5 150 mg/ml, OCIF 5 mg/ml, 7° C., pH 10.5, 168 hours) Tumor necrosis factor …: ETFPPKYLHYDEETSHQLLCDKCPPGTYLKQHCTAKWKTVCAPCPDHYYTDSWHTSDECLYCSPVCKELQYVKQECNRTHNRVCECKEGRYLEIEFCLKHRSCPPGFGVVQAGTPERNTVCKRCPDGFFSNETSSKAPCRKHTNCSVFGLLLTQKGNATHDNICSGNSESTQKCGIDVTLCEEAFFRFAVPTKFTPNWLSVLVDNLPGTKVNAESVERIKRQHSSQEQTFQLLKLWKHQNKDQDIVKKIIQDIDLCENSVQRHIGHANLTFEQLRSLMESLPGKKVGAEDIEKTIKACKPSDQILKLLSLWRIKNGDQDTLKGLMHALKHSKTYHFPKTVTQSLKKTIRFLHSFTMYKLYQKLFLEMIGNQVQSVKISCL | 104.2 ± 2.1 | – |
